For 15 compounds, IC50 results are on record in patent US9957264B2 (Merck Sharp & Dohme Corp., priority 2013, dated 2018).

Each structure is given as a SMILES string. pIC50: −log10 of the molar value.

Test [1] concerns the target JAK1 (recombinant purified GST-tagged catalytic domain) (Homo sapiens (Human), UniProt P23458). In words: Jak Biochemical HTRF Assay (JAK1). The settings on record: [ATP] 31.8 μM. In a few lines: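 Compounds in DMSO were pre-equilibrated with enzyme and biotinylated peptide, then ATP was added and the reaction proceeded 120 min at room temperature. EDTA-based stop buffer with detection reagents was added, and after 60 min the time-resolved FRET ratio was read. IC50s came from 4-parameter dose–response fits.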

In test [2] the target is JAK2 (recombinant purified GST-tagged catalytic domain) (Homo sapiens (Human), UniProt O60674). Nature of the test: Jak Biochemical HTRF Assay (JAK2). Particulars: [ATP] 8.5 μM.
JAK2 (recombinant purified GST-tagged catalytic domain), sequence (O60674 849-1124): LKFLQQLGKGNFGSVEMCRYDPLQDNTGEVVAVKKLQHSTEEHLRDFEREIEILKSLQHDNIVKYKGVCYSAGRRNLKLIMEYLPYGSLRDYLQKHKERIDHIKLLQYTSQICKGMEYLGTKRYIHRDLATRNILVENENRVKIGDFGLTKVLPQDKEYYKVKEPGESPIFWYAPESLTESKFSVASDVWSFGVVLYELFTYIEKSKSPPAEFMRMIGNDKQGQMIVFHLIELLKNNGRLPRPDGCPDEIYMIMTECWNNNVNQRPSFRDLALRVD

JAK1 (recombinant purified GST-tagged catalytic domain), sequence (P23458 875-1153): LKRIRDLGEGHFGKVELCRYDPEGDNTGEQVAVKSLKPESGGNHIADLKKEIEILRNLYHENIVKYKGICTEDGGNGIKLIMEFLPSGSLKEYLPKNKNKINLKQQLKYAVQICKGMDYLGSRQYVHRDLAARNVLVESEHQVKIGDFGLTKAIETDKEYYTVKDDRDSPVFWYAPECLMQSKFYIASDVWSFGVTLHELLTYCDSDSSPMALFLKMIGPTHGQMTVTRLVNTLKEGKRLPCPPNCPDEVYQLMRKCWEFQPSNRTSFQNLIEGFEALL

In general, pIC50 refers to the IC50 on a negative log10 scale, so that one unit is a factor of ten. Turning to `Cc1cc(Nc2nn([C@]3(CC#N)CCCOC3)c3cc[nH]c(=O)c23)ccc1C(=O)N1CCCC[C@H]1C` [Example 20-3, 2-((S)-3-(3-((3-methyl-4-((R)-2-methylpiperidine-1-carbonyl)phenyl)amino)-4-oxo-4,5-dihydro-1H-pyrazolo[4,3-c]pyridin-1-yl)tetrahydro-2H-pyran-3-yl)acetonitrile], the pIC50 in test [1] was 9.19; in test [2], 9.08.

`CC(C)(C)OC(=O)N1CC[C@](CC#N)(n2nc(Nc3ccc(S(C)(=O)=O)cc3)c3c(=O)[nH]ccc32)[C@H](F)C1` [Example 5-17, tert-butyl (3R,4R)-4-(cyanomethyl)-3-fluoro-4-(3-{[4-(methylsulfonyl)phenyl]amino}-4-oxo-4,5-dihydro-1H-pyrazolo [4,3-c]pyridin-1-yl) piperidine-1-carboxylate]: the negative logarithm of the IC50 (pIC50) in test [1] is 10.05; in test [2], 10.10.

For `COC(=O)N1CCC(CC#N)(n2nc(Nc3ccc4c(c3)CN(CC(C)C)S4(=O)=O)c3c(=O)[nH]ccc32)CC1` [Example 5-73, methyl 4-(cyanomethyl)-4-(3-{[2-(2-methylpropyl)-1,1-dioxo-2,3-dihydro-1,2-benzothiazol-5-yl]amino}-4-oxo-1H,4H,5H-pyrazolo [4,3-c]pyridin-1-yl) piperidine-1-carboxylate], the results for the pIC50 in test [1] and in test [2] were 9.92 and 9.46, respectively.

Take `CN(C)S(=O)(=O)c1ccc(Nc2nn(C3(CC#N)CCN(C(=O)CCC#N)CC3)c3cc[nH]c(=O)c23)cc1` [Example 9-22, 4-({1-[4-(cyanomethyl)-1-(3-cyanopropanoyl)piperidin-4-yl]-4-oxo-4,5-dihydro-1H-pyrazolo[4,3-c]pyridin-3-yl}amino)-N,N-dimethylbenzenesulfonamide]: the pIC50 in test [1] is 10.05; in test [2], 9.68.

In the case of `Cc1cc(Nc2nn([C@@]3(CC#N)CCCC[C@H]3F)c3cc[nH]c(=O)c23)ccc1C(=O)N1CCOCC1` [Example 5-151, 2-((1R,2R)-2-fluoro-1-(3-((3-methyl-4-(morpholine-4-carbonyl)phenyl)amino)-4-oxo-4,5-dihydro-1H-pyrazolo[4,3-c]pyridin-1-yl)cyclohexyl)acetonitrile], the figures for the pIC50 in test [1] and in test [2] were 10.05 and 10.00, respectively.

`Cc1cc(Nc2nn([C@]3(CC#N)CC[C@@H](C(=O)OC(C)(C)C)OC3)c3cc[nH]c(=O)c23)ccc1C(=O)N1CCOCC1C` (single isomer, unassigned) [Example 20-9, (2S,5S)-tert-butyl 5-(cyanomethyl)-5-(3-((3-methyl-4-((S or R)-3-methylmorpholine-4-carbonyl)phenyl)amino)-4-oxo-4,5-dihydro-1H-pyrazolo[4,3-c]pyridin-1-yl)tetrahydro-2H-pyran-2-carboxylate]: the pIC50 in test [1] is 9.85; in test [2], 9.77.

Turning to `COC(=O)[C@@H]1CC[C@@](CC#N)(n2nc(Nc3ccc(S(C)(=O)=O)cc3)c3c(=O)[nH]ccc32)CO1` (racemic) [Example 5-32, (2S,5S and 2R,5R)-methyl 5-(cyanomethyl)-5-(3-((4-(methylsulfonyl)phenyl)amino)-4-oxo-4,5-dihydro-1H-pyrazolo[4,3-c]pyridin-1-yl)tetrahydro-2H-pyran-2-carboxylate], the pIC50 is 9.89 in test [1] and 9.06 in test [2].

As to `COC(=O)[C@@H]1CC[C@@](CC#N)(n2nc(Nc3ccc(S(C)(=O)=O)cc3)c3c(=O)[nH]ccc32)CO1` (single isomer, unassigned) [Example 5-33, (2S,5S or 2R,5R)-methyl 5-(cyanomethyl)-5-(3-((4-(methylsulfonyl)phenyl)amino)-4-oxo-4,5-dihydro-1H-pyrazolo[4,3-c]pyridin-1-yl)tetrahydro-2H-pyran-2-carboxylate], the pIC50 in test [1] was 10.52; in test [2], 9.64.

For `CC(C)(C)OC(=O)N1CC(CC#N)(n2nc(Nc3ccnc(C(F)(F)F)c3)c3c(=O)[nH]ccc32)C1` [Example 4-1, tert-butyl 3-(cyanomethyl)-3-(4-oxo-3-((2-(trifluoromethyl)pyridin-4-yl)amino)-4,5-dihydro-1H-pyrazolo[43-c]pyridin-1-yl)azetidine-1-carboxylate], the figures for the negative-log IC50 (pIC50) in test [1] and in test [2] were 7.48 and 6.66, respectively.

In the case of `CC(C)(C)OC(=O)[C@@H]1CC[C@@](CC#N)(n2nc(Nc3ccc([C@@H](N)C(F)(F)F)cc3)c3c(=O)[nH]ccc32)CO1` (single isomer, unassigned) [Example 5-51, (2S,5S)-tert-butyl 5-(3-((4-((R or S)-1-amino-2,2,2-trifluoroethyl)phenyl)amino)-4-oxo-4,5-dihydro-1H-pyrazolo [4,3-c]pyridin-1-yl)-5-(cyanomethyl)tetrahydro-2H-pyran-2-carboxylate], the pIC50 in test [1] is 9.74; in test [2], 9.31.

Take `CC(C)NC(c1ccc(Nc2nn([C@]3(CC#N)CC[C@@H](C(=O)OC(C)(C)C)OC3)c3cc[nH]c(=O)c23)cc1)C(F)(F)F` (single isomer, unassigned) [Example 5-209, (2S,5S)-tert-butyl 5-(cyanomethyl)-5-(4-oxo-3-((4-((R or S)-2,2,2-trifluoro-1-(isopropylamino)ethyl)phenyl)amino)-4,5-dihydro-1H-pyrazolo [4,3-c]pyridin-1-yl)tetrahydro-2H-pyran-2-carboxylate]: the values for the negative-log IC50 (pIC50) in test [1] and in test [2] were 9.49 and 9.46, respectively.

`CC(C)(C)OC(=O)N1CC[C@](CC#N)(n2nc(Nc3ccc(S(C)(=O)=O)cc3)c3c(=O)[nH]ccc32)[C@@H](F)C1` (single isomer, unassigned) [Example 5-14, tert-butyl (3S,4R or 3R,4S)-4-(cyanomethyl)-3-fluoro-4-(3-{[4-(methylsulfonyl)phenyl]amino}-4-oxo-4,5-dihydro-1H-pyrazolo[4,3-c]pyridin-1-yl)piperidine-1-carboxylate]: the pIC50 in test [1] is 8.97; in test [2], 7.75.

On to `CCOC(=O)N1CCC(CC#N)(n2nc(Nc3ccc(S(=O)(=O)N(C)C)cc3)c3c(=O)[nH]ccc32)CC1` [Example 10-5, ethyl 4-(cyanomethyl)-4-(3-((4-(N,N-dimethylsulfamoyl)phenyl)amino)-4-oxo-4,5-dihydro-1H-pyrazolo[4,3-c]pyridin-1-yl)piperidine-1-carboxylate], for which the negative-log IC50 (pIC50) was 9.92 in test [1] and 9.54 in test [2].

In the case of `CC(C)(C)NS(=O)(=O)c1ccc(Nc2nn(C3(CC#N)CCN(C(=O)C(C)(F)F)CC3)c3cc[nH]c(=O)c23)cc1` [Example 5-56, N-(tert-butyl)-4-((1-(4-(cyanomethyl)-1-(2,2-difluoropropanoyl)piperidin-4-yl)-4-oxo-4,5-dihydro-1H-pyrazolo[4,3-c]pyridin-3-yl)amino)benzene-sulfonamide], the pIC50 is 9.92 in test [1] and 9.72 in test [2].

Take `Cc1cc(Nc2nn([C@@]3(CC#N)CCN(C(=O)OC(C)(C)C)C[C@H]3F)c3cc[nH]c(=O)c23)ccc1C(=O)N1CCSCC1` [Example 5-279, (3R,4R)-tert-butyl 4-(cyanomethyl)-3-fluoro-4-(3-((3-methyl-4-(thiomorpholine-4-carbonyl)phenyl)amino)-4-oxo-4,5-dihydro-1H-pyrazolo[4,3-c]pyridin-1-yl)piperidine-1-carboxylate]: the pIC50 was 9.74 in test [1] and 9.92 in test [2].
